Experimental findings from patent US4353904A, “Phenylpiperazine derivatives of 1,3,4-oxadiazolylphenols, and therapeutic agents containing these compounds” (BASF Aktiengesellschaft, priority 1980, dated 1982) are described below.

Data set [1] is described as follows: Acute toxicity, intraperitoneal administration. The settings on record: in vivo, ip, mouse, groups of 10 female NMRI mice, read-out: Toxicity LD 50. On the procedure:
In addition to the hypotensive action, the acute toxicity (LD 50, mg/kg), for intraperitoneal administration, was determined for groups of 10 female NMRI mice, weighing 22-27 g.
^(3) Mouse. Intraperitoneal

Data set [2] relates to blood pressure. In words: Hypotensive action in rats under urethane narcosis (carotid artery blood pressure, intravenous administration). It counts as in vivo, male Sprague-Dawley rats. As to conditions: rat; for ED20: iv, urethane narcosis 1.78 g/kg i.p., compound i.v. into jugular vein, read-out: Hypotensive action ED 20% (dose which caused a 20% reduction in blood pressure); for Hypotensive action R.A. (relative activity, Urapidil = 1.00): urethane narcosis, i.v., relative to Urapidil = 1.00. The protocol: Male Sprague-Dawley rats weighing 220-280 g were used, under urethane narcosis (1.78 g/kg, administered intraperitoneally) for the investigation. The blood pressure was measured directly in the carotid artery. The compound was administered intravenously into the jugular vein. The dose (mg/kg) which caused a 20% reduction in blood pressure was determined as the ED 20%. | ^(1) Rat. Urethane narcosis. Intravenous administration. | ^(2) Relative activity.

The nature of data set [3]: Therapeutic range / therapeutic index (quotient of LD 50 and ED 20%). As to conditions: in vivo; quotient of LD 50 (mouse i.p.) and ED 20% (rat i.v.). An excerpt:
The therapeutic range is the quotient of the LD 50 and the ED 20%.

Turning to `COc1ccccc1N1CCN(CC(O)COc2ccccc2-c2nnc(C)o2)CC1` (stereo not shown) [Example 2], the LD50 in data set [1] was 56.2 mg/kg. Further, in data set [2], the ED20 worked out at 0.0221 mg/kg and the “Hypotensive action R.A. (relative activity, Urapidil = 1.00)” value is listed as 8.55. Besides, the selectivity ratio in data set [3] was 2540.

For `COc1ccccc1N1CCN(CC(O)COc2cccc(-c3nnco3)c2)CC1` (stereo not shown) [Example 7, 1-[3-(1,3,4-Oxadiazol-2-yl)-phenoxy]-3-[4-(2-methoxyphenyl)piperazin-1-yl]-propan-2-ol], in data set [1], the LD50 came out at 215 mg/kg. Besides, in data set [2], the ED20 was 0.0754 mg/kg and the “Hypotensive action R.A. (relative activity, Urapidil = 1.00)” value came out at 2.51. Moreover, in data set [3], the selectivity ratio is 2850.

`CCOc1ccccc1N1CCN(CC(O)COc2cccc(-c3nnco3)c2)CC1` (stereo not shown) [Example 9, 1-[3-(1,3,4-Oxadiazol-2-yl)-phenoxy]-3-[4-(2-ethoxyphenyl)-piperazin-1-yl]-propan-2-ol]: in data set [1], the LD50 was 215 mg/kg. For the same compound, in data set [2], the ED20 amounted to 0.0084 mg/kg and the “Hypotensive action R.A. (relative activity, Urapidil = 1.00)” value came to 22.50. Also, the selectivity ratio in data set [3] worked out at 25600.

Regarding `COc1ccccc1N1CCN(CC(O)COc2cccc(-c3nnc(C)o3)c2)CC1` (stereo not shown) [Example 10, 1-[3-(5-Methyl-1,3,4-oxadiazol-2-yl)-phenoxy]-3-[4-(2-methoxyphenyl)-piperazin-1-yl]-propan-2-ol], the LD50 in data set [1] turned out to be 224 mg/kg. In data set [2], the ED20 amounted to 0.0333 mg/kg and the “Hypotensive action R.A. (relative activity, Urapidil = 1.00)” value amounted to 5.68. Further, in data set [3], the selectivity ratio is 6730.

On to `CCOc1ccccc1N1CCN(CC(O)COc2cccc(-c3nnc(C)o3)c2)CC1` (stereo not shown) [Example 12, 1-[3-(5-Methyl-1,3,4-oxadiazol-2-yl)-phenoxy]-3-[4-(2-ethoxyphenyl)-piperazin-1-yl]-propan-2-ol], for which the LD50 in data set [1] amounted to 162 mg/kg. In data set [2], the ED20 was found to be 0.0195 mg/kg and the “Hypotensive action R.A. (relative activity, Urapidil = 1.00)” value is 9.69. Moreover, the selectivity ratio in data set [3] is 8300.

Consider `Cc1nnc(-c2cccc(OCC(O)CN3CCN(c4ccccc4Cl)CC3)c2)o1` (stereo not shown) [Example 16, 1-[3-(5-Methyl-1,3,4-oxadiazol-2-yl)-phenoxy]-3-[4-(2-chlorophenyl)-piperazin-1-yl]-propan-2-ol], for which the LD50 in data set [1] was found to be 178 mg/kg. Further, in data set [2], the ED20 was 0.0716 mg/kg and the “Hypotensive action R.A. (relative activity, Urapidil = 1.00)” value came to 2.64. The selectivity ratio in data set [3] is 2490.

For the compound `COc1ccccc1N1CCN(CCCNc2cc(=O)n(C)c(=O)n2C)CC1` [Urapidil, 6-{3-[4-(2-methoxyphenyl)-piperazin-1-yl]-propylamino}-1,3-dimethyluracil, reference compound], the LD50 in data set [1] stood at 362 mg/kg. In addition, in data set [2], the ED20 came to 0.189 mg/kg and the “Hypotensive action R.A. (relative activity, Urapidil = 1.00)” value worked out at 1.00. The selectivity ratio in data set [3] stood at 1920.
